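The compound was tested at five concentrations on cells cultured in 96-well plates, with a 48-hour exposure period. The concentration for 50% growth inhibition is given as GI50. TGI is the concentration that stops growth completely.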
What was measured:
Test in all cases: NCI anticancer screen, dose series, 48 h
A498 renal = test system: A498 renal
A549 NSCLC = test system: A549 NSCLC
OVCAR-4 ovarian = test system: OVCAR-4 ovarian
SK-MEL-28 melanoma = test system: SK-MEL-28 melanoma
SNB-19 CNS = test system: SNB-19 CNS
U251 CNS = test system: U251 CNS
UACC-62 melanoma = test system: UACC-62 melanoma
UO-31 renal = test system: UO-31 renal
LOX IMVI melanoma = test system: LOX IMVI melanoma
NCI-H226 lung = test system: NCI-H226 lung

Row | SMILES | TGI (A498 renal) [µM] | TGI (A549 NSCLC) [µM] | TGI (OVCAR-4 ovarian) [µM] | TGI (SK-MEL-28 melanoma) [µM] | TGI (SNB-19 CNS) [µM] | TGI (U251 CNS) [µM] | TGI (UACC-62 melanoma) [µM] | TGI (UO-31 renal) [µM] | GI50 (A498 renal) [nM] | GI50 (A549 NSCLC) [µM] | GI50 (LOX IMVI melanoma) [µM] | TGI (LOX IMVI melanoma) [µM] | GI50 (OVCAR-4 ovarian) [µM] | GI50 (SK-MEL-28 melanoma) [µM] | GI50 (SNB-19 CNS) [µM] | GI50 (U251 CNS) [µM] | GI50 (UACC-62 melanoma) [µM] | GI50 (UO-31 renal) [µM] | TGI (NCI-H226 lung) [µM] | GI50 (NCI-H226 lung) [µM]
1 | Cc1ccc(/C=C(\NC(=O)c2ccccc2)c2nc3ccccc3[nH]2)cc1 | > 100 | > 100 | > 100 | > 100 | > 100 | > 100 | > 100 | > 100 | – | – | – | – | – | – | – | – | – | – | – | –
2 | CCOC(=O)C1=C(C)NC(=O)NC1CN1C(=O)c2ccccc2C1=O (stereo not given) | > 100 | > 100 | > 100 | > 100 | > 100 | > 100 | > 100 | > 100 | > 100000 | > 100 | > 100 | > 100 | > 100 | > 100 | > 100 | > 100 | > 100 | > 100 | – | –
3 | NS(=O)(=O)c1ccc(NC(=O)Cc2nc3ccccc3s2)cc1 | 36.8 | 37.9 | 34.9 | 32 | 49.5 | 28.5 | 29.4 | 62.6 | – | – | – | – | – | – | – | – | – | – | 33 | –
4 | C=C1C(=O)O[C@H]2[C@H](OC(C)=O)[C@@H](C)CCCC3(C)OC3CCC3(CO3)[C@H](O)C[C@@H]12 (stereo not given in full) | – | 74.8 | 53.8 | 41.6 | 83.1 | 22.1 | 24.1 | 45 | – | 19.8 | 12.6 | 25.2 | 3.77 | 8.36 | 25.7 | 10.4 | 11.8 | 14.3 | 31.7 | 10.9
5 | CN(C)CC(=O)Nc1ccc2ncnc(Nc3ccc(Oc4cccc(C(F)(F)F)c4)c(Cl)c3)c2c1 | 4.92 | 10.2 | 5.83 | 3.22 | 14.4 | 3.99 | 3.69 | 2.32 | 1620 | 2.82 | 1.73 | 3.13 | 1.96 | 1.74 | 3.34 | 1.79 | 1.91 | 0.951 | – | –
6 | C[C@@H](NS(=O)(=O)c1ccc(NC(=O)c2ccccc2)cc1)C(=O)O | > 100 | > 100 | > 100 | > 100 | > 100 | > 100 | > 100 | > 100 | – | – | – | > 100 | – | – | – | – | – | – | – | –
7 | O=c1c2ccccc2c(/C=N\NC2=NCCN2)c2oc3ccccc3n12 | – | 60.3 | 65.7 | 49 | 51.3 | 51.2 | 33.4 | 70.9 | – | 16.4 | 13.2 | 31.3 | 23.7 | 20.7 | 22.5 | 18.7 | 16.3 | 18.8 | 48.2 | 19.2
8 | CC1=NN(C(=O)Nc2ccc(Cl)cc2)C(=O)C2CCC(=O)N12 (stereo not given) | > 100 | > 100 | > 100 | > 100 | > 100 | > 100 | > 100 | > 100 | – | – | – | > 100 | – | – | – | – | – | – | – | –
9 | Oc1ccc2ccccc2c1N=Nc1cc(Cl)ccc1Cl | – | > 50 | 28.8 | > 50 | > 50 | 22 | > 50 | > 50 | – | – | – | – | – | – | – | – | – | – | > 50 | –
